PMC4712254 (Clinical Pharmacokinetics, 2015)
Marks after values point to notes of the source that are not given here.

Tests used:
[1] = Plasma pharmacokinetics of probe drugs and metabolites in healthy male subjects
[2] = both CYP2B6 probe drugs; cited from earlier work
CYP2B6 [3] = test: Basel cocktail phenotyping of CYP2B6; type: in vivo, human; settings: plasma, geometric mean (90 % CI)
CYP2C9 = test: Basel cocktail phenotyping of CYP2C9; type: in vivo, human; settings: for [los]/[E3174]: plasma, geometric mean (90 % CI); for metabolic ratios at 6 h: the other subjects
p-glycoprotein (pgp) = settings: cited from earlier work
CYP2D6 = test: Basel cocktail phenotyping of CYP2D6; type: in vivo, human; settings: plasma, geometric mean (90 % CI)
CYP3A4 = test: Basel cocktail phenotyping of CYP3A4; type: in vivo, human; settings: plasma, geometric mean (90 % CI)
CYP2C19 [4] = test: Basel cocktail phenotyping of CYP2C19; type: in vivo, human; settings: plasma, geometric mean (90 % CI)
CYP2B6 [5] = settings: cited from earlier work
CYP2B6 [6] = settings: cited from earlier work; remark: listed apart in the source
CYP1A2 = settings: cited from earlier work
CYP2C19 [7] = settings: cited from earlier work
[8] = 4 h, Cocktail + inducer (rifampicin)
[9] = 6 h, Cocktail + inducer (rifampicin)
[10] = 8 h, Cocktail + inducer (rifampicin)
[11] = 2 h, Cocktail + inducer (rifampicin)

O=C1Nc2c(O)cc(Cl)cc2[C@@](C#CC2(O)CC2)(C(F)(F)F)O1 [8,14-dihydroxy-efavirenz]
plasma concentrations after deglucuronidation ([1]; after deglucuronidation): lower than 6 ng/mL | plasma concentrations ([1]; without deglucuronidation): below the limit of quantification

CC(NC(C)(C)C)C(=O)c1cccc(Cl)c1 (stereo not shown) [bupropion]
half-life [2]: 50 to 70 h

O=C1Nc2ccc(Cl)cc2[C@@](C#CC2CC2)(C(F)(F)F)O1 [efavirenz]
[efa]/[OH-efa] (CYP2B6 [3]; [8]): 19.3 (17.9–21.3)***^a | [efa]/[OH-efa] (CYP2B6 [3]; 4 h, Cocktail + inhibitors): 84.1 (71.9–115.0)*** | [efa]/[OH-efa] (CYP2B6 [3]; 4 h, Cocktail alone (baseline)): 38.7 (34.8–48.5) | [efa]/[OH-efa] (CYP2B6 [3]; [9]): 23.1 (21.3–25.7)***^a | [efa]/[OH-efa] (CYP2B6 [3]; 6 h, Cocktail + inhibitors): 77.6 (69.3–94.2)***^a | [efa]/[OH-efa] (CYP2B6 [3]; 6 h, Cocktail alone (baseline)): 43.7 (39.5–51.3) | [efa]/[OH-efa] (CYP2B6 [3]; [10]): 27.7 (26.0–30.8)***^a | [efa]/[OH-efa] (CYP2B6 [3]; 8 h, Cocktail + inhibitors): 88.7 (79.7–108.0)*** | [efa]/[OH-efa] (CYP2B6 [3]; 8 h, Cocktail alone (baseline)): 53.2 (47.8–62.6)

CCCCc1nc(Cl)c(CO)n1Cc1ccc(-c2ccccc2-c2nn[nH]n2)cc1 [losartan]
[los]/[E3174] (CYP2C9; [11]): 0.44 (0.37–0.96)**^b | [los]/[E3174] (CYP2C9; 2 h, Cocktail + inhibitors): 3.39 (2.66–4.62)ns^f | [los]/[E3174] (CYP2C9; 2 h, Cocktail alone (baseline)): 1.18 (1.17–2.99) | [los]/[E3174] (CYP2C9; [8]): 0.08 (0.06–0.16)**^a | [los]/[E3174] (CYP2C9; 4 h, Cocktail + inhibitors): 1.17 (1.03–2.09)*** | [los]/[E3174] (CYP2C9; 4 h, Cocktail alone (baseline)): 0.17 (0.14–0.37) | [los]/[E3174] (CYP2C9; [9]): 0.06 (0.04–0.12)***^c | [los]/[E3174] (CYP2C9; 6 h, Cocktail + inhibitors): 0.55 (0.47–1.01)***^a | [los]/[E3174] (CYP2C9; 6 h, Cocktail alone (baseline)): 0.10 (0.08–0.19) | [los]/[E3174] (CYP2C9; [10]): 0.05 (0.04–0.07) ns^b | [los]/[E3174] (CYP2C9; 8 h, Cocktail + inhibitors): 0.24 (0.20–0.42)*** | [los]/[E3174] (CYP2C9; 8 h, Cocktail alone (baseline)): 0.05 (0.04–0.08) | metabolic ratios at 6 h (CYP2C9; baseline): 0.04–0.11 | metabolic ratios at 6 h (CYP2C9; inhibition): 0.20–0.53 | p-glycoprotein (pgp) substrate (p-glycoprotein (pgp)): transported by p-glycoprotein

COCCc1ccc(OCC(O)CNC(C)C)cc1 (stereo not shown) [metoprolol]
[met]/[OH-met] (CYP2D6; [11]): 1.83 (1.60–2.18) nt^d | [met]/[OH-met] (CYP2D6; 2 h, Cocktail alone (baseline)): 1.93 (1.56–2.47)^e | [met]/[OH-met] (CYP2D6; [8]): 2.02 (1.84–2.31) ns^a | [met]/[OH-met] (CYP2D6; 4 h, Cocktail + inhibitors): 6.60 (5.90–7.85)*** | [met]/[OH-met] (CYP2D6; 4 h, Cocktail alone (baseline)): 2.20 (2.00–2.54) | [met]/[OH-met] (CYP2D6; [9]): 1.88 (1.69–2.20)*^a | [met]/[OH-met] (CYP2D6; 6 h, Cocktail + inhibitors): 8.99 (8.33–10.01)*** | [met]/[OH-met] (CYP2D6; 6 h, Cocktail alone (baseline)): 2.36 (2.16–2.69)^a | [met]/[OH-met] (CYP2D6; [10]): 1.67 (1.51–1.93) ns^b | [met]/[OH-met] (CYP2D6; 8 h, Cocktail + inhibitors): 9.90(9.06–11.39)*** | [met]/[OH-met] (CYP2D6; 8 h, Cocktail alone (baseline)): 2.11 (1.91–2.44)

Cc1ncc2n1-c1ccc(Cl)cc1C(c1ccccc1F)=NC2 [midazolam]
[mid]/[OH-mid] (CYP3A4; [11]): 1.73 (1.54–2.11) ns^a | [mid]/[OH-mid] (CYP3A4; 2 h, Cocktail + inhibitors): 3.46 (3.10–4.29)*** | [mid]/[OH-mid] (CYP3A4; 2 h, Cocktail alone (baseline)): 1.31 (1.16–1.77) | [mid]/[OH-mid] (CYP3A4; 4 h, Cocktail alone (baseline)): 1.51 (1.33–1.97)

COc1ccc2[nH]c([S+]([O-])Cc3ncc(C)c(OC)c3C)nc2c1 (stereo not shown) [omeprazole]
[ome]/[OH-ome] (CYP2C19 [4]; [11]): 0.25 (0.22–0.35)**^a | [ome]/[OH-ome] (CYP2C19 [4]; 2 h, Cocktail + inhibitors): 25.8 (22.7–33.2)*** | [ome]/[OH-ome] (CYP2C19 [4]; 2 h, Cocktail alone (baseline)): 1.08 (0.90–1.46) | [ome]/[OH-ome] (CYP2C19 [4]; [8]): 0.18 (0.15–0.24)***^a | [ome]/[OH-ome] (CYP2C19 [4]; 4 h, Cocktail + inhibitors): 18.1 (16.0–22.5)*** | [ome]/[OH-ome] (CYP2C19 [4]; 4 h, Cocktail alone (baseline)): 0.49 (0.38–0.86) | [ome]/[OH-ome] (CYP2C19 [4]; 6 h, Cocktail + inhibitors): 14.6 (12.5–18.8)nt^a | [ome]/[OH-ome] (CYP2C19 [4]; 6 h, Cocktail alone (baseline)): 0.28 (0.18–0.55)^b

Fc1ccc([C@@H]2CCNC[C@H]2COc2ccc3c(c2)OCO3)cc1 [paroxetine]
CYP2B6 inhibition in vitro (CYP2B6 [5]): CYP2B6 inhibitor in vitro

CO[C@H]1/C=C/O[C@@]2(C)Oc3c(C)c(O)c4c(O)c(c(/C=N/N5CCN(C)CC5)c(O)c4c3C2=O)NC(=O)/C(C)=C\C=C\[C@H](C)[C@H](O)[C@@H](C)[C@@H](O)[C@@H](C)[C@H](OC(C)=O)[C@@H]1C [rifampicin]
concentrations in one subject compared with the other subjects ([1]; subject excluded from induction data, higher): approximately 100 fold | in vivo inducer class, CYP2B6 (CYP2B6 [6]): moderate inducer (50–80 % decrease in AUC) | in vivo inducer class, CYP1A2 (CYP1A2): weak inducer | in vivo inducer class, 2C19 (CYP2C19 [7]): moderate inducer (50–80 % decrease in AUC)
